From PubChem BioAssay AID1963837 (Molecular Pharmacology Branch, DTP, NCI, 2024)
pIC50: −log10 of the molar value. Several values for one entry are separate records, joined by “and”; a condition that tells them apart may be missing. Equal values may be shown once. One block for each compound: values may come before it.

System: 843126-344-R-J1-PDC complex spheroid viability
Experiment: Anticancer human tumor 843126-344-R-J1-PDC patient-derived melanoma cell line growth inhibition [POLQ]
Details: for viability, T/C: stronger effect = lower value
Experimental: Multicellular complex tumor spheroid response to Polymerase (POL) inhibitors (novobiocin, ART-558, RP6685) in combination with a variety of drugs and investigational agents in selected tumor cell lines
The POL inhibitors (novobiocin, ART-558, and RP6685) were evaluated both individually and in combination with standard of care and investigational anticancer small molecules within a complex spheroid model of solid tumors. . Complex spheroids include a stromal component modeled by human endothelial cells (HUVEC) and fibroblasts modeled by human mesenchymal stem cells (MSCs). The concentration ranges selected for each drug and investigational agent were based upon clinically achievable concentrations if the clinical Cmax of the agent was known.
Compounds. The drugs and investigational agents: novobiocin (NSC847541), ART-558 (NSC835418), RP-6685 (NSC848927), peposertib (NSC802822), ceralasertib (NSC780249), elimusertib (NSC800525), camonsertib (NSC841442), AZD-1390 (NSC803789), olaparib (NSC753686), talazoparib (NSC767125), rucaparib (NSC756644), sotorasib (NSC818433), MRTX-1133 (NSC836407), SN-38 (NSC673596), topotecan (NSC609699), epotoside (NSC141540), doxorubicin (NSC123127), gemcitabine (NSC613327), 5-fluorouracil (NSC19893), paclitaxel (NSC125973), vemurafenib (NSC761431), MSA-2 (NSC828583), SN-011 (NSC837082), adavosertib (NSC754352), prexasertib (NSC758257), carboplatin (NSC241240) and oxaliplatin (NSC266046), were obtained from the National Cancer Institute (NCI) Developmental Therapeutics Program Chemical Repository (21). The FDA-approved anticancer drug set is available from the Developmental Therapeutics Program at https://dtp.cancer.gov/organization/dscb/obtaining/. […] The stock solutions were prepared in dimethyl sulfoxide (DMSO, Sigma-Aldrich, St. Louis, MO, cat. D2650), except for the platinum compounds which were prepared in saline (Quality Biological, Gaithersburg, MD, cat. 114-055-101), at 800-fold the tested concentration and stored at -70 degrees C prior to their use. All drugs and investigational agents were tested over a range starting from a high concentration at or near the clinical Cmax and decreasing in half-log increments. If the clinical Cmax for an agent had not been determined, the highest concentration tested was 10 microM, except for SN-38, which was tested at a high concentration of 1 microM.
Cell Culture. All cells were maintained in an incubator at 37 degrees C and 5% CO2 with 95% humidity. The PDC lines were cultured according to standard operating procedures established by the NCI PDMR (https://pdmr.cancer.gov). Table 3 of the manuscript, lists the cell lines along with the number of the three cell types plated to form the mct-spheroids and media for tumor cell growth. After thawing, all PDC lines, except 997537-175-T-J1-PDC and 415267-285-R-J2-PDC, were cultured in Matrigel-coated flasks prepared with a working solution of 1X Ham's F-12 nutrient mix, without supplementation (Thermo Fisher Scientific, cat. 11765054), 100 U/mL penicillin-streptomycin (Thermo Fisher Scientific, cat. 15140122), and 2.5% Matrigel (Corning Inc., Corning, NY, cat. 354248) for the first three passages. The two PDC lines 997537-175-T-J1-PDC and 415267-285-R-J2-PDC were cultured on uncoated flasks. The 857933-349-R-J2-PDC line was cultured in 6C/Colon 1B media containing advanced DMEM/F-12 (Thermo Fisher Scientific, cat. 12634028), 10 mM HEPES (Thermo Fisher Scientific, cat. 15630080), 1X GlutaMAX supplement (Thermo Fisher Scientific, cat. 35050061), 0.1 mg/mL primocin (InvivoGen, San Diego, CA, cat. ant-pm-2), 10% defined fetal bovine serum, heat inactivated (HyClone Laboratories Inc., Logan, UT, cat. SH30070.03HI), 50% L-WRN conditioned media (ATCC, cat. CRL-3276), 1.25 mM N-Acetyl-L-cysteine (Sigma-Aldrich, cat. A9165), 10 mM nicotinamide (Sigma-Aldrich, cat. N0636), 1X B-27 supplement (Thermo Fisher Scientific, cat. 17504044), 1X N-2 supplement (Thermo Fisher Scientific, cat. […]

[1] = curve of first compound, second compound 0.0316 µM
[2] = curve of first compound, second compound 0.1 µM
[3] = curve of first compound, second compound 0.316 µM
[4] = curve of first compound, second compound 1 µM
[5] = curve of first compound, second compound 3.16 µM
[6] = curve of first compound, second compound 10 µM
[7] = compound alone, run of 01/19/2024
[8] = compound alone, run of 01/08/2024
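Wherever viability, T/C is given: spheroids exposed to drugs for seven days before readout.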

Compound: CC(=O)O[C@H]1C(=O)[C@@]2(C)[C@H]([C@H](OC(=O)c3ccccc3)[C@]3(O)C[C@H](OC(=O)[C@H](O)[C@@H](NC(=O)c4ccccc4)c4ccccc4)C(C)=C1C3(C)C)[C@]1(OC(C)=O)CO[C@@H]1C[C@@H]2O + COC1C(OC(N)=O)C(O)C(Oc2ccc3c(O)c(NC(=O)c4ccc(O)c(CC=C(C)C)c4)c(=O)oc3c2C)OC1(C)C
pIC50 [1]: < 5.52
pIC50 [2]: < 5.52
pIC50 [3]: < 5.52
pIC50 [4]: < 5.52
pIC50 [5]: < 5.52
pIC50 [6]: < 5.52
viability, T/C (second compound 0.0316 µM, first compound 0.00949 µM): 55.4%
viability, T/C (second compound 0.0316 µM, first compound 0.03 µM): 70%
viability, T/C (second compound 0.0316 µM, first compound 0.0949 µM): 56%
viability, T/C (second compound 0.0316 µM, first compound 0.3 µM): 69.8%
viability, T/C (second compound 0.0316 µM, first compound 0.949 µM): 61.2%
viability, T/C (second compound 0.0316 µM, first compound 3 µM): 68.9%
viability, T/C (second compound 0.1 µM, first compound 0.00949 µM): 63.9%
viability, T/C (second compound 0.1 µM, first compound 0.03 µM): 60.9%
viability, T/C (second compound 0.1 µM, first compound 0.0949 µM): 49.1%
viability, T/C (second compound 0.1 µM, first compound 0.3 µM): 55.3%
viability, T/C (second compound 0.1 µM, first compound 0.949 µM): 55.5%
viability, T/C (second compound 0.1 µM, first compound 3 µM): 57.5%
viability, T/C (second compound 0.316 µM, first compound 0.00949 µM): 55.6%
viability, T/C (second compound 0.316 µM, first compound 0.03 µM): 64.6%
viability, T/C (second compound 0.316 µM, first compound 0.0949 µM): 65.5%
viability, T/C (second compound 0.316 µM, first compound 0.3 µM): 57.1%
viability, T/C (second compound 0.316 µM, first compound 0.949 µM): 55.7%
viability, T/C (second compound 0.316 µM, first compound 3 µM): 61.1%
viability, T/C (second compound 1 µM, first compound 0.00949 µM): 60.2%
viability, T/C (second compound 1 µM, first compound 0.03 µM): 59.8%
viability, T/C (second compound 1 µM, first compound 0.0949 µM): 61.6%
viability, T/C (second compound 1 µM, first compound 0.3 µM): 60.4%
viability, T/C (second compound 1 µM, first compound 0.949 µM): 52.5%
viability, T/C (second compound 1 µM, first compound 3 µM): 52.1%
viability, T/C (second compound 3.16 µM, first compound 0.00949 µM): 63.6%
viability, T/C (second compound 3.16 µM, first compound 0.03 µM): 62.2%
viability, T/C (second compound 3.16 µM, first compound 0.0949 µM): 53.8%
viability, T/C (second compound 3.16 µM, first compound 0.3 µM): 57.2%
viability, T/C (second compound 3.16 µM, first compound 0.949 µM): 60.7%
viability, T/C (second compound 3.16 µM, first compound 3 µM): 50.9%
viability, T/C (second compound 10 µM, first compound 0.00949 µM): 65.4%
viability, T/C (second compound 10 µM, first compound 0.03 µM): 55.8%
viability, T/C (second compound 10 µM, first compound 0.0949 µM): 52.9%
viability, T/C (second compound 10 µM, first compound 0.3 µM): 54.6%
viability, T/C (second compound 10 µM, first compound 0.949 µM): 66.1%
viability, T/C (second compound 10 µM, first compound 3 µM): 57.1%

pIC50 [7]: < 5.00
Compound: Nc1ccc(C#CCN(C(=O)Cc2ncc(C(F)(F)F)cc2C(F)(F)F)c2ccc(F)cc2)nn1
viability, T/C (compound 0.0316 µM): 98.2% [middle of 13 runs]
viability, T/C (compound 0.1 µM): 95.1% [middle of 13 runs]
viability, T/C (compound 0.316 µM): 97.8% [middle of 13 runs]
viability, T/C (compound 1 µM): 92.4% [middle of 12 runs]
viability, T/C (compound 3.16 µM): 90.4% [middle of 13 runs]
viability, T/C (compound 10 µM): 87.2% [middle of 13 runs]

Compound: COC1C(OC(N)=O)C(O)C(Oc2ccc3c(O)c(NC(=O)c4ccc(O)c(CC=C(C)C)c4)c(=O)oc3c2C)OC1(C)C (stereo not given)
viability, T/C (compound 1 µM): 92% [middle of 13 runs]
pIC50 [8]: < 5.00

pIC50 [8]: < 5.00
pIC50 [7]: < 5.00
Compound: Cc1cccc(N(C)C(=O)C2C(O)CCN2c2nc(C)cc(C(F)(F)F)c2C#N)c1 (stereo not given)
viability, T/C (compound 0.316 µM): 100% [middle of 12 runs]
viability, T/C (compound 1 µM): 97.7% [middle of 12 runs]
viability, T/C (compound 10 µM): 95.7% [middle of 12 runs]

Compound: COc1cc(C2c3cc4c(cc3C(OC3OC5COC(C)OC5C(O)C3O)C3COC(=O)C23)OCO4)cc(OC)c1O (stereo not given) + COC1C(OC(N)=O)C(O)C(Oc2ccc3c(O)c(NC(=O)c4ccc(O)c(CC=C(C)C)c4)c(=O)oc3c2C)OC1(C)C
pIC50 [1]: < 5.00
pIC50 [2]: < 5.00
pIC50 [3]: < 5.00
pIC50 [4]: 5.04
pIC50 [5]: < 5.00
pIC50 [6]: 5.11
viability, T/C (second compound 0.0316 µM, first compound 0.0316 µM): 86%
viability, T/C (second compound 0.0316 µM, first compound 0.1 µM): 89.4%
viability, T/C (second compound 0.0316 µM, first compound 0.316 µM): 95.3%
viability, T/C (second compound 0.0316 µM, first compound 1 µM): 79.8%
viability, T/C (second compound 0.0316 µM, first compound 3.16 µM): 57%
viability, T/C (second compound 0.0316 µM, first compound 10 µM): 50.8%
viability, T/C (second compound 0.1 µM, first compound 0.0316 µM): 102%
viability, T/C (second compound 0.1 µM, first compound 0.1 µM): 91.3%
viability, T/C (second compound 0.1 µM, first compound 0.316 µM): 88.2%
viability, T/C (second compound 0.1 µM, first compound 1 µM): 86%
viability, T/C (second compound 0.1 µM, first compound 3.16 µM): 60%
viability, T/C (second compound 0.1 µM, first compound 10 µM): 54.5%
viability, T/C (second compound 0.316 µM, first compound 0.0316 µM): 98%
viability, T/C (second compound 0.316 µM, first compound 0.1 µM): 89.3%
viability, T/C (second compound 0.316 µM, first compound 0.316 µM): 97.5%
viability, T/C (second compound 0.316 µM, first compound 1 µM): 83.6%
viability, T/C (second compound 0.316 µM, first compound 3.16 µM): 60.7%
viability, T/C (second compound 0.316 µM, first compound 10 µM): 52.1%
viability, T/C (second compound 1 µM, first compound 0.0316 µM): 81.8%
viability, T/C (second compound 1 µM, first compound 0.1 µM): 82.6%
viability, T/C (second compound 1 µM, first compound 0.316 µM): 97%
viability, T/C (second compound 1 µM, first compound 1 µM): 82.1%
viability, T/C (second compound 1 µM, first compound 3.16 µM): 78.9%
viability, T/C (second compound 1 µM, first compound 10 µM): 47.3%
viability, T/C (second compound 3.16 µM, first compound 0.0316 µM): 85.8%
viability, T/C (second compound 3.16 µM, first compound 0.1 µM): 93.6%
viability, T/C (second compound 3.16 µM, first compound 0.316 µM): 89.5%
viability, T/C (second compound 3.16 µM, first compound 1 µM): 91%
viability, T/C (second compound 3.16 µM, first compound 3.16 µM): 64.4%
viability, T/C (second compound 3.16 µM, first compound 10 µM): 57.8%
viability, T/C (second compound 10 µM, first compound 0.0316 µM): 114%
viability, T/C (second compound 10 µM, first compound 0.1 µM): 96.3%
viability, T/C (second compound 10 µM, first compound 0.316 µM): 91.8%
viability, T/C (second compound 10 µM, first compound 1 µM): 85.1%
viability, T/C (second compound 10 µM, first compound 3.16 µM): 58.5%
viability, T/C (second compound 10 µM, first compound 10 µM): 47.2%

Compound: CC1COCCN1c1cc(-c2ccnn2C)c2ccnc(-c3ccn[nH]3)c2n1 (stereo not given)
viability, T/C (compound 0.0316 µM): 93.7% and 70.9% and 85.8%
viability, T/C (compound 0.1 µM): 87% and 64.9% and 70.9%
viability, T/C (compound 0.316 µM): 85.9% and 57.1% and 61.9%
viability, T/C (compound 1 µM): 44.4% and 47.7% and 48.8%
viability, T/C (compound 3.16 µM): 38.5% and 40.5% and 38.8%
viability, T/C (compound 10 µM): 33.1% and 23.9% and 32.7%
pIC50 (curve of compound): 6.07 and 6.08 and 6.04
